The subject of series [1] is P. aeruginosa BAA-2110. In kind it is cell-based, Pseudomonas aeruginosa. The protocol:
(§1) In order to determine the Minimal Bactericidal Concentration (MBC) values of the peptides, colony formation of various bacteria strains was monitored and determined after treatment with the peptides of the invention. Multi-Drug Resistant A. baumannii bacteria were cultured with or without OMN6 in increasing concentrations, as is detailed in FIG. 6 and Example 6. Immediately afterwards, samples of each experimental group were diluted to 1×10^4 to 1×10^6 as necessary, and further, the samples were plated on appropriate medium-agar plates. All the plates were incubated at 37° C. for 24-48 hours. Colonies were counted and CFU/ml in the original sample, prior to plating, were calculated and determined. An example of the plates, after incubation, is presented in FIG. 7 where the plate on the left side of the image is the CTRL sample treated with DDW and in the right side of the image increasing concentrations of OMN6 are presented, as specified therein.
(§2) The experimental system and parameters described here were used to determine the MBC values of OMN2, OMN6, OMN7 and OMN11 on various bacteria strains with and without the supplementation of 10% FBS (Table 6 and Table 8).

The test system of series [2] is P. aeruginosa BAA-2110. The class given is cell-based, Pseudomonas aeruginosa. The protocol: (§3) In order to determine the MIC values of the peptides, growth and inhibition of various bacteria were monitored after treatment with the peptides of the invention (Table 6).
(§4) E. coli bacteria were cultured with or without OMN6 in increasing concentrations of 0.8-200 μM and with or without Fetal Bovine Serum 10% for 17-20 hours. The growth of the bacteria was continuously monitored via spectrophotometry at 600 nm. As bacterial growth progresses, OD600 nm values rise, and where the growth is inhibited OD600 nm values remain constant.
(§5) The experimental system and parameters described here were used to determine the MIC values of OMN2, OMN6, OMN7 and OMN11 on various bacteria strains (Table 7 and Table 8).
This is another data set of the same source.

The subject of a further series is E. coli strains. The class given is cell-based. The protocol: (§6) In order to determine the MIC values of the peptides, growth and inhibition of various bacteria were monitored after treatment with the peptides of the invention (Table B). E. coli, K. pneumoniae, P. aeruginosa and Salmonella bacteria were cultured at 37° C. and at 5×10^6 CFU/ml in a standard 96-well-plate, in Mueller Hinton broth. […] The growth of the bacteria was continuously monitored via spectrophotometry at a wave-length of 625 nm. As bacterial growth progresses, Optical density at 625 nm (OD625 nm) values increase, and where the bacterial growth is inhibited, OD625 nm values remain constant. The experimental system and parameters described herein were used to determine the MIC values of OMN3, OMN5, OMN8 and OMN9 on various bacteria strains (Table B). Using the standard MHB MIC testing for antibiotic activity

A further series has as its system P. aeruginosa BAA-2795. In kind it is cell-based, Pseudomonas aeruginosa. The protocol: as §6
Series [3] concerns E. coli Sens. 25922 QC strain. In kind it is cell-based, Escherichia coli. The protocol: as §6
The subject of a further series is E. coli CR BAA-2452. In kind it is cell-based, Escherichia coli. The protocol: as §6
A further series deals with E. coli ESBL BAA-198. In kind it is cell-based, Escherichia coli. The protocol:
as §6

The test system of a further series is K. pneu NDM1 BAA-2473. In kind it is cell-based, Klebsiella pneumoniae. The protocol: as §6
A further series has as its target Proteinase-K (Parengyodontium album, UniProt P06873). The experiment in a line: Proteinase-K (ProtK) proteolysis stability, Coommassie Blue stained gel. The class given is in vitro ADME. The conditions noted are these: 10 μg protein, 2 hours at 37° C. The protocol: Proteinase-K (ProtK) was used to assess the stability of OMN6 versus native Cecropin A (CecA) and Bovine Serum Albumin (BSA) (See FIG. 1 A). 10 μg of each protein were incubated with increasing concentrations of between 5-20 ng of ProtK as specified, for 2 hours at 37° C. Samples were boiled at 100° C. for five minutes and separated on 15% acrylamide gel. The gel was then stained with Coommassie Blue and excess dye was removed over-night. […] In lane 2, the CecA band was weaker than the untreated sample band in lane 1. In lane 8, fragments of degraded BSA were detected, evidence of partial degradation.
The same experimental system as described above was used to assess the stability of OMN2, OMN7 and OMN11 against proteolytic degradation by ProtK (see FIG. 1B).

For series [4], the system named is E. coli Sens. 25922. The class given is cell-based, Escherichia coli. The conditions noted are these: Sens. 25922. The protocol:
as §3, §4, §5

Series [5] relates to E. coli Sens. 25922. The class given is cell-based, Escherichia coli. The protocol:
as §1, §2

Converted amounts (≈) assume the structure as drawn. Where a SMILES comes first, the peptide text is derived from it. Bridges are numbered along the chain shown (N, C = ends). Where no end group is shown, it is not given here.

Sequence of Proteinase-K (P06873 106-384, species assumed): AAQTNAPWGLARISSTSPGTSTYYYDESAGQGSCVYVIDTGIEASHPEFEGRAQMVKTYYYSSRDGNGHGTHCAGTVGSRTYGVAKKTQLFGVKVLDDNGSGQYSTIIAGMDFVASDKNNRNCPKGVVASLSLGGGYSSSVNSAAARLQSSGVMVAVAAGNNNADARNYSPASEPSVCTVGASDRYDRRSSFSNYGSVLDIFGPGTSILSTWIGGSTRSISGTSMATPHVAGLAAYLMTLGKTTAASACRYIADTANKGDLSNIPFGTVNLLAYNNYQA

In the series with P. aeruginosa BAA-2110 [1], `CC[C@H](C)[C@H](NC(=O)CNC(=O)[C@H](CC(=O)O)NC(=O)[C@H](CCCNC(=N)N)NC(=O)[C@@H](NC(=O)[C@H](CC(N)=O)NC(=O)[C@H](CCC(N)=O)NC(=O)CNC(=O)[C@@H](NC(=O)[C@H](CCCCN)NC(=O)[C@H](CCC(=O)O)NC(=O)[C@@H](NC(=O)[C@H](CCCCN)NC(=O)[C@H](CCCCN)NC(=O)[C@H](Cc1ccccc1)NC(=O)[C@@H](NC(=O)[C@H](CCCCN)NC(=O)[C@H](Cc1c[nH]c2ccccc12)NC(=O)[C@H](CCCNC(=N)N)NC(=O)[C@H](CS)NC(=O)[C@@H](N)CCSC)[C@@H](C)CC)[C@@H](C)CC)C(C)C)[C@@H](C)CC)C(=O)N[C@H](C(=O)N[C@@H](CCCCN)C(=O)N[C@@H](C)C(=O)NCC(=O)N1CCC[C@H]1C(=O)N[C@@H](C)C(=O)N[C@H](C(=O)N[C@@H](C)C(=O)N[C@H](C(=O)N[C@H](C(=O)NCC(=O)N[C@@H](CCC(N)=O)C(=O)N[C@@H](C)C(=O)N[C@@H](C)C(=O)N[C@H](C(=O)N[C@H](C(=O)N[C@@H](CS)C(N)=O)[C@@H](C)CC)[C@@H](C)O)C(C)C)C(C)C)C(C)C)C(C)C` [OMN7] (H-MCRWKIFKKIEKVGQNIRDGIVKAGPAVAVVGQAATIC-NH2; N-terminus and C-terminus assumed) yielded an MBC of 50 µM (≈ 205 µg/mL). This compound gave a minimal inhibitory concentration (MIC) in the series on P. aeruginosa BAA-2110 [2] of 50 µM (≈ 205 µg/mL).
As to `CC[C@H](C)[C@@H]1NC(=O)[C@H](C)NC(=O)[C@H](CC(=O)O)NC(=O)[C@H](CCCNC(=N)N)NC(=O)[C@H](C(C)C)NC(=O)[C@H](CCCNC(=N)N)NC(=O)[C@H](CCC(N)=O)NC(=O)CNC(=O)[C@H](C)NC(=O)[C@H](CCCNC(=N)N)NC(=O)[C@H](CCC(=O)O)NC(=O)[C@H](CC(C)C)NC(=O)[C@H](CCC(=O)O)NC(=O)[C@H](CCCCN)NC(=O)[C@H](Cc2ccccc2)NC(=O)[C@@H]2CCCN2C(=O)[C@H](CC(N)=O)NC(=O)[C@H](Cc2c[nH]c3ccccc23)NC(=O)[C@@H](NC(=O)[C@@H](N)CCSC)CSSC[C@@H](C(=O)O)NC(=O)[C@H](CCCCN)NC(=O)[C@H](C)NC(=O)[C@H](CC(C)C)NC(=O)[C@H](C)NC(=O)[C@H]([C@@H](C)O)NC(=O)[C@H](C)NC(=O)[C@H](CCC(N)=O)NC(=O)[C@H](C)NC(=O)[C@H](C(C)C)NC(=O)[C@H]([C@@H](C)O)NC(=O)[C@H](C)NC(=O)[C@H](C(C)C)NC(=O)[C@H](C)NC(=O)[C@@H]2CCCN2C(=O)CNC(=O)[C@H](C)NC(=O)[C@H](CO)NC(=O)[C@H]([C@@H](C)CC)NC1=O` [OMN5] (H-MCWNPFKELERAGQRVRDAIISAGPAVATVAQATALAKC-OH; disulfide 2-39; N-terminus and C-terminus assumed), in the series with E. coli strains, the “MIC for E. coli strains” value was “above 256 μg/mL”. This compound also registered an MIC against P. aeruginosa BAA-2795 of 256 µg/mL (≈ 61.8 µM).
With `CC[C@H](C)[C@@H]1NC(=O)CNC(=O)[C@H](CC(=O)O)NC(=O)[C@H](CCCNC(=N)N)NC(=O)[C@H]([C@@H](C)CC)NC(=O)[C@H](CC(N)=O)NC(=O)[C@H](CCCNC(=N)N)NC(=O)CNC(=O)[C@H](CCSC)NC(=O)[C@H](CCCCN)NC(=O)[C@H](CCC(=O)O)NC(=O)[C@H]([C@@H](C)CC)NC(=O)[C@H](CCCCN)NC(=O)[C@H](CCCCN)NC(=O)[C@H](Cc2ccccc2)NC(=O)[C@H]([C@@H](C)CC)NC(=O)[C@H](CCCCN)NC(=O)[C@H](Cc2c[nH]c3ccccc23)NC(=O)[C@H](CCCNC(=N)N)NC(=O)[C@@H](NC(=O)[C@@H](N)CCSC)CSSC[C@@H](C(=O)O)NC(=O)[C@H]([C@@H](C)CC)NC(=O)[C@H](C)NC(=O)[C@H](CCCCN)NC(=O)[C@H](C)NC(=O)[C@H](CO)NC(=O)CNC(=O)[C@H](CC(C)C)NC(=O)[C@H](C(C)C)NC(=O)[C@H](CCC(=O)O)NC(=O)[C@H]([C@@H](C)CC)NC(=O)[C@H](C)NC(=O)[C@@H]2CCCN2C(=O)CNC(=O)[C@H](C)NC(=O)[C@H](C)NC(=O)[C@H](C(C)C)NC1=O` [OMN8] (H-MCRWKIFKKIEKMGRNIRDGIVAAGPAIEVLGSAKAIC-OH; disulfide 2-38; N-terminus and C-terminus assumed), the MIC in [3] came out at 32 µg/mL (≈ 7.67 µM); against E. coli CR BAA-2452 it was 32 µg/mL (≈ 7.67 µM); against E. coli ESBL BAA-198 it was 16 µg/mL (≈ 3.83 µM); against K. pneu NDM1 BAA-2473, 64 µg/mL (≈ 15.3 µM). Besides, the “MIC for E. coli strains” value in the series with E. coli strains is 16 to 32 µg/mL.
Turning to “Bovine Serum Albumin [BSA, reference compound]”, the figures for the “Degradation by ProtK (gel band)” value with Proteinase-K (5 ng ProtK) and in the series with Proteinase-K (20 ng ProtK) were “partially degrade” and “completely degrade”, respectively.
Regarding “KWKLFKKIEKVGQNIRDGIIKAGPAVAVVGQATQIAK-NH2 (C-terminus assumed) [CecA, reference compound]”, the “Degradation by ProtK (gel band)” value at Proteinase-K (5 ng ProtK) is reported as “partially degrade”; at Proteinase-K (20 ng ProtK), “completely degrade”.
Turning to `CC[C@H](C)[C@@H]1NC(=O)[C@H](C)NC(=O)[C@H](C)NC(=O)[C@H](C)NC(=O)[C@H](CCC(N)=O)NC(=O)CNC(=O)[C@H](C(C)C)NC(=O)[C@H]([C@@H](C)O)NC(=O)[C@H](C)NC(=O)[C@H](C(C)C)NC(=O)[C@H](C)NC(=O)[C@@H]2CCCN2C(=O)[C@H](C)NC(=O)[C@H](C)NC(=O)[C@H](CO)NC(=O)[C@H]([C@@H](C)O)NC(=O)[C@H](C(C)C)NC(=O)[C@H](C)NC(=O)[C@H](CC(=O)O)NC(=O)[C@H](CCCNC(=N)N)NC(=O)[C@H](C(C)C)NC(=O)[C@H](CCCNC(=N)N)NC(=O)[C@H](CCC(N)=O)NC(=O)CNC(=O)[C@H](C)NC(=O)[C@H](CCCNC(=N)N)NC(=O)[C@H](CCC(=O)O)NC(=O)[C@H](CC(C)C)NC(=O)[C@H](CCC(=O)O)NC(=O)[C@H](CCCCN)NC(=O)[C@H](Cc2ccccc2)NC(=O)[C@@H]2CCCN2C(=O)[C@H](CC(N)=O)NC(=O)[C@H](Cc2c[nH]c3ccccc23)NC(=O)[C@@H](NC(=O)[C@@H](N)CCSC)CSSC[C@@H](C(=O)O)NC(=O)[C@H](CCCNC(=N)N)NC(=O)[C@H](C)NC1=O` [OMN3] (H-MCWNPFKELERAGQRVRDAVTSAAPAVATVGQAAAIARC-OH; disulfide 2-39; N-terminus and C-terminus assumed), the “MIC for E. coli strains” value with E. coli strains is given as “above 256 μg/mL”. In the series on P. aeruginosa BAA-2795, this compound returned an MIC of 256 µg/mL (≈ 62.2 µM).
Consider `CC[C@H](C)[C@H](NC(=O)CNC(=O)[C@H](CCC(=O)O)NC(=O)[C@H](CO)NC(=O)[C@@H](NC(=O)[C@H](CCCNC(=N)N)NC(=O)[C@H](CCCCN)NC(=O)[C@H](CCCCN)NC(=O)[C@H](C)NC(=O)[C@H](CO)NC(=O)[C@H](CC(N)=O)NC(=O)[C@H](CCC(=O)O)NC(=O)[C@H](CC(C)C)NC(=O)[C@H](CCCCN)NC(=O)[C@H](CCCCN)NC(=O)[C@H](C)NC(=O)[C@@H](NC(=O)[C@H](CCCCN)NC(=O)[C@H](CO)NC(=O)[C@H](CC(C)C)NC(=O)[C@H](Cc1c[nH]c2ccccc12)NC(=O)[C@H](CO)NC(=O)[C@H](CS)NC(=O)[C@@H](N)CCSC)[C@@H](C)O)[C@@H](C)CC)C(=O)N[C@@H](C)C(=O)N[C@H](C(=O)N[C@@H](C)C(=O)N[C@H](C(=O)N[C@@H](CCC(N)=O)C(=O)NCC(=O)NCC(=O)N1CCC[C@H]1C(=O)N[C@@H](CCCNC(=N)N)C(=O)N[C@@H](CS)C(N)=O)[C@@H](C)CC)[C@@H](C)CC` [OMN11] (H-MCSWLSKTAKKLENSAKKRISEGIAIAIQGGPRC-NH2; N-terminus and C-terminus assumed), for which the MIC with E. coli Sens. 25922 [4] worked out at 25 µM (≈ 91.9 µg/mL); against P. aeruginosa BAA-2110 [2], 40 µM (≈ 147 µg/mL). Also, the MBC was determined as 40 µM (≈ 147 µg/mL) in the series on P. aeruginosa BAA-2110 [1] and 25 µM (≈ 91.9 µg/mL) against E. coli Sens. 25922 [5].

(Values after patent US20200399329A1, “ANTIMICROBIAL PEPTIDES” (priority 2015, published 2020).)
